The target of the experiment is T1, glucokinase (GK), residues 12-465 of the human enzyme (Homo sapiens, UniProt P35557).
T1 construct: I.D. No. 1 corresponds to residues 12-465 of glucokinase; made in house; host or cells: E. coli DH10b-Tlr
T1 sequence (P35557 with tags, fused parts or gaps isoform P35557-2): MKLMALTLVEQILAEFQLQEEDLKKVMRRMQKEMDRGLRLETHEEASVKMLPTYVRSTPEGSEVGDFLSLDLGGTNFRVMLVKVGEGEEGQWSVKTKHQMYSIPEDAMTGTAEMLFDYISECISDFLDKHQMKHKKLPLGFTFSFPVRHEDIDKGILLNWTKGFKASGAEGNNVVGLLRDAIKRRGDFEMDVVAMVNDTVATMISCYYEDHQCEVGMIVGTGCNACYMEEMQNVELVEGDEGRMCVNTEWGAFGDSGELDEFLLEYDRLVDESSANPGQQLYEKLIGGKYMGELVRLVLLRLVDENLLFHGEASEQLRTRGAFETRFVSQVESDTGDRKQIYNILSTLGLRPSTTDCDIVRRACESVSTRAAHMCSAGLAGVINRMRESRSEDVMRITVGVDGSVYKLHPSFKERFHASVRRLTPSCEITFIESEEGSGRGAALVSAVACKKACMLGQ
Kind of experiment: Enzymatic glucokinase activity assay (KinaseGlo luminescence, ATP consumption). Format: biochemical. To be noted: 5 μM ATP, 5 mM Glucose; for EC50: GK activation, Kact = concentration giving 50% of the maximal increase in GK activity, read-out: pKact; for Emax: calculated maximal gain in GK enzyme activity at a saturating concentration of the compound, read-out: % ACTmax. Put shortly: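 C-terminally FLAG-tagged enzyme expressed in E. coli and purified. Reaction: 25 mM Hepes pH 7.2, 25 mM NaCl, 10 mM MgCl2, 0.01% Brij35, 1 mM DTT, 5 μM ATP, 5 mM glucose, 2% DMSO, 60 min at room temperature. Remaining ATP was read by luciferase luminescence; pKact and % ACTmax came from nonlinear fits of 11-point 2-fold dilutions.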

These results are taken from patent US8173645B2 (Takeda San Diego, Inc., priority 2007, dated 2012).

Take `Cc1ccc2sc(S(=O)(=O)N3CCN([C@@H](CC4CCCCC4)C(=O)Nc4nccs4)C(=O)C3)cc2c1` [Example 107, (S)-3-cyclohexyl-2-(4-(5-methylbenzo[b]thiophen-2-ylsulfonyl)-2-oxopiperazin-1-yl)-N-(thiazol-2-yl)propanamide]: the EC50 was in the range of 0.794 to 1.26 µM and the Emax was not above 74%.
Taken in the same sequence, the figures for `O=C(Nc1nccs1)[C@H](CC1CCCCC1)N1CCN(S(=O)(=O)c2ccco2)CC1=O` [Example 108, (S)-3-cyclohexyl-2-(4-(furan-2-ylsulfonyl)-2-oxopiperazin-1-yl)-N-(thiazol-2-yl)propanamide] were not above 0.631 µM and 74.1 to 97%.
Taken in the same sequence, the figures for `CCn1cc(S(=O)(=O)N2CCN([C@@H](CC3CCCCC3)C(=O)Nc3nccs3)C(=O)C2)cn1` [Example 110, (S)-3-cyclohexyl-2-(4-(1-ethyl-1H-pyrazol-4-ylsulfonyl)-2-oxopiperazin-1-yl)-N-(thiazol-2-yl)propanamide] were not below 3.16 µM and not below 119%.
Taken in the same sequence, the figures for `Cc1n[nH]c(C)c1S(=O)(=O)N1CCN([C@@H](CC2CCCCC2)C(=O)Nc2nccs2)C(=O)C1` [Example 111, (S)-3-cyclohexyl-2-(4-(3,5-dimethyl-1H-pyrazol-4-ylsulfonyl)-2-oxopiperazin-1-yl)-N-(thiazol-2-yl)propanamide] were not below 3.16 µM and not below 119%.
On to `Cn1ccc(S(=O)(=O)N2CCN([C@@H](CC3CCCCC3)C(=O)Nc3nccs3)C(=O)C2)n1` [Example 112, (S)-3-cyclohexyl-2-(4-(1-methyl-1H-pyrazol-3-ylsulfonyl)-2-oxopiperazin-1-yl)-N-(thiazol-2-yl)propanamide], for which the EC50 is not above 0.631 µM and the Emax was 108 to 119%.
The matching figures for `O=C(Nc1nccs1)[C@H](CC1CCCCC1)N1CCN(S(=O)(=O)C2CCCC2)CC1=O` [Example 113, (S)-3-cyclohexyl-2-(4-(cyclopentylsulfonyl)-2-oxopiperazin-1-yl-N-thiazol-2-yl)propanamide]: not above 0.631 µM and not below 119%.
In the case of `O=C(Nc1nccs1)[C@H](CC1CCCCC1)N1CCN(C(=S)NC2CCCCC2)CC1=O` [Example 114, (S)-3-cyclohexyl-2-(4-(cyclohexylcarbamothioyl)-2-oxopiperazin-1-yl)-N-(thiazol-2-yl)propanamide], the EC50 is 1.58 to 2.51 µM and the Emax was 97.1 to 107%.
Taken in the same sequence, the figures for `O=C(Nc1nccs1)[C@H](CC1CCCCC1)N1CCN(C(=S)NCc2ccco2)CC1=O` [Example 115, (S)-3-cyclohexyl-2-(4-(furan-2-ylmethylcarbamothioyl)-2-oxopiperazin-1-yl)-N-(thiazol-2-yl)propanamide] were 0.794 to 1.26 µM and 97.1 to 107%.
Turning to `N#Cc1cccc(NC(=S)N2CCN([C@@H](CC3CCCCC3)C(=O)Nc3nccs3)C(=O)C2)c1` [Example 116, (S)-2-(4-(3-cyanophenylcarbamothioyl)-2-oxopiperazin-1-yl)-3-cyclohexyl-N-(thiazol-2-yl)propanamide], the EC50 is not below 3.16 µM and the Emax is not below 119%.
Taken in the same sequence, the figures for `O=C(Nc1nccs1)[C@H](CC1CCCCC1)N1CCN(C(=S)NCCN2CCOCC2)CC1=O` [Example 117, (S)-3-cyclohexyl-2-(4-(2-morpholinoethylcarbamothioyl)-2-oxopiperazin-1-yl)-N-(thiazol-2-yl)propanamide] were 1.58 to 2.51 µM and 97.1 to 107%.
Taken in the same sequence, the figures for `O=C(Nc1nccs1)[C@H](CC1CCCCC1)N1CCN(C(=S)NCCCN2CCOCC2)CC1=O` [Example 118, (S)-3-cyclohexyl-2-(4-(3-morpholinopropylcarbamothioyl)-2-oxopiperazin-1-yl)-N-(thiazol-2-yl)propanamide] were 1.58 to 2.51 µM and 97.1 to 107%.
Taken in the same sequence, the figures for `O=C(Nc1nccs1)[C@H](CC1CCCCC1)N1CCN(C(=S)NCc2cccc(F)c2)CC1=O` [Example 119, (S)-3-cyclohexyl-2-(4-(3-fluorobenzylcarbamothioyl)-2-oxopiperazin-1-yl)-N-(thiazol-2-yl)propanamide] were 0.794 to 1.26 µM and 97.1 to 107%.
As for `O=C(Nc1nccs1)[C@H](CC1CCCCC1)N1CCN(C(=S)NCc2ccc(F)cc2)CC1=O` [Example 120, (S)-3-cyclohexyl-2-(4-(4-fluorobenzylcarbamothioyl)-2-oxopiperazin-1-yl)-N-(thiazol-2-yl)propanamide], the EC50 was in the range of 0.794 to 1.26 µM and the Emax was 108 to 119%.
Taken in the same sequence, the figures for `O=C(Nc1nccs1)[C@H](CC1CCCCC1)N1CCN(C(=S)NCCN2CCCCC2)CC1=O` [Example 121, (S)-3-cyclohexyl-2-(2-oxo-4-(2-(piperidin-1-yl)ethylcarbamothioyl)piperazin-1-yl)-N-(thiazol-2-yl)propanamide] were not above 0.631 µM and 97.1 to 107%.
With `COc1ccc(CNC(=S)N2CCN([C@@H](CC3CCCCC3)C(=O)Nc3nccs3)C(=O)C2)cc1` [Example 122, (S)-3-cyclohexyl-2-(4-(4-methoxybenzylcarbamothioyl)-2-oxopiperazin-1-yl)-N-(thiazol-2-yl)propanamide], the EC50 fell in the range of 1.58 to 2.51 µM and the Emax is 74.1 to 97%.
Taken in the same sequence, the figures for `O=C(Nc1nccs1)[C@H](CC1CCCCC1)N1CCN(C(=S)NCc2cccs2)CC1=O` [Example 123, (S)-3-cyclohexyl-2-(2-oxo-4-(thiophen-2-ylmethylcarbamothioyl)piperazin-1-yl)-N-(thiazol-2-yl)propanamide] were 1.58 to 2.51 µM and 108 to 119%.
The matching figures for `O=C(Nc1nccs1)[C@H](CC1CCCCC1)N1CCN(C(=S)Nc2ccc(Cl)cc2)CC1=O` [Example 125, (S)-2-(4-(4-chlorophenylcarbamothioyl)-2-oxopiperazin-1-yl)-3-cyclohexyl-N-(thiazol-2-yl)propanamide]: not below 3.16 µM and 97.1 to 107%.
Taken in the same sequence, the figures for `N#Cc1ccc(NC(=S)N2CCN([C@@H](CC3CCCCC3)C(=O)Nc3nccs3)C(=O)C2)cc1` [Example 126, (S)-2-(4-(4-cyanophenylcarbamothioyl)-2-oxopiperazin-1-yl)-3-cyclohexyl-N-(thiazol-2-yl)propanamide] were 0.794 to 1.26 µM and 97.1 to 107%.
In the case of `O=C(Nc1nccs1)[C@H](CC1CCCCC1)N1CCN(C(=S)Nc2ccc(Oc3ccccc3)cc2)CC1=O` [Example 127, (S)-3-cyclohexyl-2-(2-oxo-4-(4-phenoxyphenylcarbamothioyl)piperazin-1-yl)-N-(thiazol-2-yl)propanamide], the EC50 lay in the range of 1.58 to 2.51 µM and the Emax is not above 74%.
Take `O=C(Nc1nccs1)[C@H](CC1CCCCC1)N1CCN(C(=S)NC2CCCC2)CC1=O` [Example 128, (S)-3-cyclohexyl-2-(4-(cyclopentylcarbamothioyl)-2-oxopiperazin-1-yl)-N-(thiazol-2-yl)propanamide]: the EC50 lay within 0.794 to 1.26 µM and the Emax was 97.1 to 107%.
Turning to `O=C(Nc1nccs1)[C@H](CC1CCCCC1)N1CCN(C(=S)NC2CC2)CC1=O` [Example 129, (S)-3-cyclohexyl-2-(4-(cyclopropylcarbamothioyl)-2-oxopiperazin-1-yl)-N-(thiazol-2-yl)propanamide], the EC50 is 1.58 to 2.51 µM and the Emax is 97.1 to 107%.
In the case of `O=C(Nc1nccs1)[C@H](CC1CCCCC1)N1CCN(C(=O)Nc2ccc(Cl)c(Cl)c2)CC1=O` [Example 131, (S)-4-(3-cyclohexyl-1-oxo-1-(thiazol-2-ylamino)propan-2-yl)-N-(3,4-dichlorophenyl)-3-oxopiperazine-1-carboxamide], the EC50 is not below 3.16 µM and the Emax is not above 74%.
Taken in the same sequence, the figures for `N#Cc1ccc(NC(=O)N2CCN([C@@H](CC3CCCCC3)C(=O)Nc3nccs3)C(=O)C2)cc1` [Example 132, (S)-N-(4-cyanophenyl)-4-(3-cyclohexyl-1-oxo-1-(thiazol-2-ylamino)propan-2-yl)-3-oxopiperazine-1-carboxamide] were not below 3.16 µM and not above 74%.
Taken in the same sequence, the figures for `CCN(CC)CCCNC(=S)N1CCN([C@@H](CC2CCCCC2)C(=O)Nc2nccs2)C(=O)C1` [Example 133, (S)-3-cyclohexyl-2-(4-(3-(diethylamino)propylcarbamothioyl)-2-oxopiperazin-1-yl)-N-(thiazol-2-yl)propanamide] were 0.794 to 1.26 µM and 97.1 to 107%.
Taken in the same sequence, the figures for `NS(=O)(=O)c1ccc(NC(=S)N2CCN([C@@H](CC3CCCCC3)C(=O)Nc3nccs3)C(=O)C2)cc1` [Example 134, (S)-3-cyclohexyl-2-(2-oxo-4-(4-sulfamoylphenylcarbamothioyl)piperazin-1-yl)-N-(thiazol-2-yl)propanamide] were 1.58 to 2.51 µM and 108 to 119%.
For the compound `O=C(Nc1nccs1)[C@H](CC1CCCCC1)N1CCN(C(=S)Nc2ccc(OC(F)F)cc2)CC1=O` [Example 135, (S)-3-cyclohexyl-2-(4-(4-(difluoromethoxy)phenylcarbamothioyl)-2-oxopiperazin-1-yl)-N-(thiazol-2-yl)propanamide], the EC50 was not below 3.16 µM and the Emax was 97.1 to 107%.
